Key:
E-selectin = target: T1, E-selectin (Homo sapiens, UniProt P16581); experiment: HL60 cell adhesion assay on recombinant, soluble E-selectin-IgG1 fusion protein; assay type: cell-based; settings: read-out: IC 50 values for E-selectin
T1 construct: genetically engineered soluble fusion proteins from the extracytoplasmic domain of E- or P-selectin in each case; made in house; host or cells: COS-7 cells (ATCC), transiently transfected; culture supernatant captured on anti-human IgG
Text: (§1) Primary assays for the investigation of the action of the compounds of the present invention for cell adhesion to recombinant, soluble selectin fusion proteins.
(§2) In order to test the activity of the compounds according to the invention on the interaction between the E- and P-selectins (old nomenclature ELAM-1 and GMP-140) with their ligands, an assay is used which is only specific for one of these interactions in each case. The ligands are supplied in their natural form as surface structures on promyelocytic HL60 cells. As HL60 cells have ligands and adhesion molecules of very different specificity, the desired specificity of the assay can only be produced by means of the binding component. The binding components used were genetically engineered soluble fusion proteins from the extracytoplasmic domain of E- or P-selectin in each case and the constant region of a human immunoglobulin of the subclass IgG1.
Preparation of L-selectin-IgG1
To prepare soluble L-selectin-IgG1 fusion protein, the genetic construct "ELAM-Rg" published by Walz et al., 1990 was used.
For expression, the plasmid DNA was transfected in COS-7 cells (ATCC) by means of DEAE-dextran (Molecular biological methods: see Ausubel, F. M., Brent, R., Kingston, R. E., Moore, D. D., Seidman, J. G., Struhl, K. and Smith, J. A. 1990. Current Protocols in Molecular Biology, John Wiley, New York). Seven days after transfection, the culture supernatant is recovered, freed from cells and cell fragments by centrifugation and transferred to 25 mM HEPES pH 7.0, 0.3 mM PMSF, 0.02% sodium azide and kept at +4° C. (Walz, G., Aruffo, A., Kolanus, W., Bevilacqua, M. and Seed, B. 1990. Recognition by ELAM-1 of the sialyl-Lex determinant on myeloid and tumor cells. Science 250, 1132-1135.)
(§3) Carrying out the HL60 cell adhesion assays on recombinant, soluble adhesion molecules
(§4) 1. 96-well microtiter test plates (Nunc Maxisorb) are incubated at room temperature for 2 hours with 100 μl of a goat anti-human IgG antibody (Sigma) diluted (1+100) in 50 mM tris pH 9.5. After removing the antibody solution, washing is carried out once with PBS.
(§5) 2. 150 μl of the blocking buffer are left in the wells for 1 hour at room temperature. The composition of the blocking buffer is: 0.1% gelatin, 1% BSA, 5% calf serum, 0.2 mM PMSF, 0.02% sodium azide. After removing the blocking buffer, washing is carried out once with PBS.
(§6) 3. 100 μl each of cell culture supernatant of correspondingly transfected and expressing COS cells are pipetted into the wells, Incubation is carried out for 2 hours at room temperature. After removing the cell culture supernatant, washing is carried out once with PBS.
4. 20 μl of binding buffer are added to the wells. […]

P-selectin = experiment: HL60 cell adhesion assay on recombinant, soluble P-selectin-IgG1 fusion protein; assay type: cell-based; settings: read-out: IC 50 values for P-selectin
Text: as §1, §2
Preparation of P-selectin-IgG1
To prepare the soluble P-selectin-lgG1 fusion protein, the genetic construct "CD62Rg" published by Aruffo et al., 1991 is used. The further procedure corresponds to the preparation of L-selectin-IgG1 presented under A1.
Aruffo, A., Kolanus, W., Walz, G., Fredman, P. and Seed, B. 1991. CD62/-P-Selectin recognition of myeloid and tumor cell sulfatides. Cell 67, 35-44.
as §3, §4, §5, §6
4. 20 μl of binding buffer are added to the wells. The binding buffer has the composition: 50 mM HEPES, pH 7.5; 100 mM NaCl; 1 mg/ml BSA; 2 mM MgCl2; 1 mM CaCl2; 3 mM MnCl2; 0.02% sodium azide; 0.2 mM PMSF. To do this, 5 μl of the test substance are pipetted, mixed by swirling the plate and incubated at room temperature for 10 min.
5. 50 ml of a HL60 cell culture having 200,000 cells/ml are centrifuged at 350 g for 4 min. The pellet is resuspended in 10 ml of RPMI 1640 and the cells are centrifuged again. […]

[1] = tested on: adhesion of leukocytes to the endothelium; experiment: Leukocyte adhesion in vivo, intravital microscopy in the rat (mesenterium, LPS-induced); settings: SPRD (m) rat, LPS 15 mg/kg, vs untreated control
Text: Leukocyte adhesion--Testing of the activity of the compounds according to the invention in vivo (intravital microscopy in the rat):
The induced adhesion of leukocytes is quantified in the mesenterium of the rat using an intravital microscopic investigation technique (Atherton A. and Born G. V. R., Quantitative investigations of the adhesiveness of circulating polymorphonuclear leukocytes to blood vessel walls. J. Physiol. 222, 447-474, 1972; Seiffge, D. Methoden zur Untersuchung der Rezeptor-vermittelten Interaktion zwischen Leukozyten und Endothelzellen im Entzundungsgeschehen [Methods for investigation of the receptor-mediated interaction between leukocytes and endothelial cells in inflammatory phenomena], in: Ersatz- und Erganzungsmethoden zu Tierversuchen in der biomedizinischen Forschung [Substitution and replacement methods for animal experiments in biomedical research], Schoffl, H. et al., (ed.) Springer, 1995 (in print)). Lasting anesthesia is initiated under inhalation ether anesthesia by intramuscular injection of urethane ([…] of body weight). After exposing vessels (femoral vein for the injection of substances and carotid artery for blood pressure measurement), catheters are tied into them. After this, the corresponding transparent tissue (mesenterium) is exposed by the standard methods known in the literature and arranged on the microscope stage and coated with warm liquid paraffin at 37° C. (Menger, M. D. and Lehr, H, A., Scope and perspectives of intravital microscopy-bridge over from in vitro to in vivo, Immunology Today 14, 519-522, 1993). […] The increased adhesion of leukocytes to the endothelium caused by this means is quantified by direct vital microscopy or with the aid of fluorescent dyes. All measuring operations are recorded by video camera and stored on a video recorder. Over a period of 60 minutes, the number of rolling leukocytes (i.e. all visibly rolling leukocytes which are slower than the flowing erythrocytes) and the number of leukocytes adhering to the endothelium (residence period longer than 5 seconds) is determined every 10 minutes. […]

[2] = tested on: open rabbit heart perfused with leukocytes; experiment: Reperfusion model: adhesion of neutrophils in ischemia/reperfusion on the open rabbit heart (Langendorff)
Protocol: Reperfusion model for investigation of the effects of the adhesion of neutrophils in the course of ischemia/reperfusion on the open rabbit heart
The hearts are perfused at constant pressure according to the Langendorff technique with nutrient solution and also with/without leukocytes or active compound. Ischemia is then produced by tying off the left coronary artery (30 min). After reperfusion (30 min), the leukocyte accumulation is histologically assessed. In the course of the experiment, potentials and arrhythmias are additionally measured on 256 electrodes (total time of experiment about 90 min).

T1 sequence (P16581 with tags, fused parts or gaps): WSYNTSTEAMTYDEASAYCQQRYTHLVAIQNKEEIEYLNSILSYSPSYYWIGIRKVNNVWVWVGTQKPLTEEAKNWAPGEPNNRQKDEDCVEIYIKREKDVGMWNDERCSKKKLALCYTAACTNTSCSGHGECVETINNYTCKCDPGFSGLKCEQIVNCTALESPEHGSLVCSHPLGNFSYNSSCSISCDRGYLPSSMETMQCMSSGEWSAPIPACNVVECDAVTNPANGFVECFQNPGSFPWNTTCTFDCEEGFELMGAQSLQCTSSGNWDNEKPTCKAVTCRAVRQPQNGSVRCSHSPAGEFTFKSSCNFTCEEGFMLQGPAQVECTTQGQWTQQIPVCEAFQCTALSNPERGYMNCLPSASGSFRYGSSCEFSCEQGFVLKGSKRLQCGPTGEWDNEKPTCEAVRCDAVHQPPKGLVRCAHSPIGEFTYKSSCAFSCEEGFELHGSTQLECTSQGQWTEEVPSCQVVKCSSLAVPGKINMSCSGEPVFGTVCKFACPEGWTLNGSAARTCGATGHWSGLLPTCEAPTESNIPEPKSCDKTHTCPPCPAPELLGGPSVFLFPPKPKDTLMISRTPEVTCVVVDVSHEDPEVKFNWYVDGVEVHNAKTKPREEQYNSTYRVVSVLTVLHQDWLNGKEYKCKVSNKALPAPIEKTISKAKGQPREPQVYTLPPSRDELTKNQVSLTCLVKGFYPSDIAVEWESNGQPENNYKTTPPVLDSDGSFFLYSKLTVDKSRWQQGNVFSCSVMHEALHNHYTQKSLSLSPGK

Compound | IC50 (E-selectin) [µM] | IC50 (P-selectin) [µM] | inhibition (of leukocyte adhesion) ([1]; 1 mg/kg i.v.) [%] | inhibition (of leukocyte adhesion) ([1]; 5 mg/kg i.v.) [%] | inhibition (of leukocyte adhesion) ([1]; 10 mg/kg i.v.) [%] | reduction of arrhythmias ([2]; in the range from about 1 μM) | leukocyte accumulation and arrhythmias ([2]; hearts perfused with leukocytes and active compound, vs untreated hearts)
C[C@@H]1O[C@@H](O[C@@H]2CCCC[C@H]2OC(=O)N2CCC(C(=O)O)CC2)[C@@H](O)[C@H](O)[C@@H]1O [Compound 3a, N-Carbonyl-4-carboxypiperidyl-(1→2)-[(α-L-fucopyranosyl)-(1→1)]-(1R, 2R)-trans-1,2-cyclohexanediol] | > 2000 | > 2000 | 64 | 69 | 81 | considerable reduction of arrhythmias | –
chondroitin sulfate [reference compound] | – | – | – | – | – | – | reduced leukocyte accumulation and arrhythmias
C[C@@H]1O[C@@H](O[C@@H]2CCCC[C@H]2OC(=O)N2CCCC(CC(C(=O)O)C(=O)O)C2)[C@@H](O)[C@H](O)[C@@H]1O (stereo partly drawn) [Compound 4b, [N-Carbonyl-(1,1-dicarboxyl-ethyl)-(2→3)-piperidyl]-(1→2)-[(α-L-fuco-pyranosyl)-(1→1)]-(1R, 2R)-trans-1,2-cyclohexanediol] | > 2000 | > 2000 | – | – | – | – | –

More lines, main results first:

IC50 (E-selectin) [µM] | IC50 (P-selectin) [µM] | Compound | inhibition (of leukocyte adhesion) ([1]; 1 mg/kg i.v.) [%] | inhibition (of leukocyte adhesion) ([1]; 5 mg/kg i.v.) [%] | inhibition (of leukocyte adhesion) ([1]; 10 mg/kg i.v.) [%] | reduction of arrhythmias ([2]; in the range from about 1 μM) | leukocyte accumulation and arrhythmias ([2]; hearts perfused with leukocytes and active compound, vs untreated hearts)
1600 | 7500 | C[C@@H]1O[C@@H](O[C@@H]2CCCC[C@H]2OC(=O)N2CCC(C(=O)O)(C(=O)O)CC2)[C@@H](O)[C@H](O)[C@@H]1O [Compound 3e, N-Carbonyl-4,4-dicarboxypiperidyl-(1→2)-[(α-L-fucopyranosyl)-(1→1)]-(1R, 2R)-trans-1,2-cyclohexanediol] | – | – | – | – | –
3700 | 2850 | C[C@@H]1O[C@@H](O[C@@H]2CCC[C@H]2OC(=O)N2CCC(C(=O)O)CC2)[C@@H](O)[C@H](O)[C@@H]1O [Compound 1e, N-Carbonyl-4-carboxypiperidyl-(1→2)-[(α-L-fucopyranosyl)-(1→1)]-(1R, 2R)-trans-1,2-cyclopentanediol] | – | – | – | – | –

Source: patent US5739300A, “Antiadhesive piperidine-and pyrrolidinecarboxylic acids” (Hoechst Aktiengesellschaft, priority 1995, dated 1998)
